Laboratory results taken from US20110223131A1, “ANTIVIRAL COMPOUNDS” (Gilead Sciences, Inc., priority 2010, published 2011).
Values after ≈ are worked out from the molar mass of the structure shown. Values joined by “and” are separate entries in the source; they are usually repeats but may differ in a detail not shown here. Identical values can stand only once. Like-named read-outs stand apart in the source and are kept apart here.

How the values were obtained:
[1] = Aqueous solubility in buffers, HPLC-UV; type: physicochemical; details: aqueous buffer, thermodynamic from solid, 24 to 48 hours
Protocol: Excess solid material was added to aqueous buffers at pH 2 and pH 7 in glass vials to form suspensions. The suspension was stirred on a stirrer plate with a magnetic stirrer bar at room temperature for periods of 24 to 48 hours. The suspension was filtered through a 0.22 micron PVDF syringe filters. The clear filtrate was diluted in acetonitrile and analyzed by HPLC-UV against an external standard for the compound concentration.

HIV-IIIb [2] = details: MT-2 cells; as reported in WO 2010/011959; cited from earlier work
[3] = Oral bioavailability from crystalline suspension in dog (plasma PK, LC/MS/MS); type: in vivo, beagle dogs; details: for bioavailability: read-out: F (oral bioavailability)
Protocol: Oral Bioavailability-Determination of Oral Bioavailability of Integrase Inhibitors from Crystalline Suspension in Dog The in-life phase of these studies was carried out at SRI, Menlo Park, Calif. Both Compound (Ia) and Comparator Compound were formulated in 0.5% HPMC […], 0.2% Tween 20, 0.9% benzyl alcohol, and 98.4% water. Both were at 2.00 mg/mL for oral dosing. Each dosing group consisted of 3 male, beagle dogs. At dosing, the animals weighed an average of 10.9 kgs for Compound (Ia) and 10.5 kgs for Comparator Compound. The animals were fasted overnight prior to dose administration and up to 4 hr after dosing. The dogs were pre-treated with pentagastrin at 30 minutes prior to dosing by IM injection. The Compound (Ia) suspension was administered by oral gavage at 1.5 mL/kg to deliver a total dose of 3 mg/kg, while the Comparator Compound suspension was administered by oral gavage at 2 mL/kg for a dose of 4 mg/kg. Serial venous blood samples (approximately 0.8-1.0 mL each) were taken at specified time points (range t=0 to t=24 hr) after dosing from each animal. The blood samples were collected into VacutainerTM tubes containing EDTA-K3 as the anti-coagulant and were immediately placed on wet ice pending centrifugation for plasma. Dosing solutions were analyzed using un-used portions of the dosing solutions, and aliquots of approximately 1 mL of each dosing solution were saved. The concentration of compound in the dosing solution was measured with an HPLC-UV method. Comparator Compound (nominal dose of 4 mg/kg) was dosed at 9387 nmoles/kg, while Compound (Ia) (nominal dose of 3 mg/kg) was dosed at 6563-6566 nmoles/kg. An LC/MS/MS method was used to measure the concentration of test compounds in plasma. Non-compartmental pharmacokinetic analysis was performed on the plasma concentration-time data. The bioanalytical method consisted of treating 100 μL of each plasma sample with 200 μL of acetonitrile (ACN) and 200 μL acetonitrile (ACN) containing internal standard. After protein precipitation and centrifugation, 100 μL of the supernatant was transferred to a clean 96-well plate and mixed with 100 μL of water. An aliquot of 10 μL of the above solution was injected onto an API-4000 triple quadrupole LC/MS/MS system. A Hypersil Gold (#25005-053030, Thermo Electron Corporation) column was used. Mobile phase A contained water with 0.1% formic acid and 1% IPA. Mobile phase B contained acetonitrile with 0.1% formic acid and 1% IPA.

[4] = Cytotoxicity (CC50) in MT-4 cells; type: cell-based; details: human
[5] = Cytotoxicity (CC50) in MT-2 cells; type: cell-based; details: human
HIV-IIIb [6] = test: Antiviral assay in MT-2 / MT-4 cells infected with HIV-IIIb (CellTiter-Glo readout); type: cell-based; details: Human immunodeficiency virus 1, MT4, 120 h, 5 days, cell line (MT-2 or MT-4) not printed in Table 1
Protocol: For the antiviral assay utilizing MT-2 cells, 50 μL of 2× test concentration of 5-fold serially diluted compound in culture medium with 10% FBS was added to each well of a 96-well plate (9 concentrations) in triplicate. MT-2 cells were infected with HIV-IIIb at a multiplicity of infection (m.o.i) of 0.01 for 3 hours. Fifty microliters of infected cell suspension in culture medium with 10% FBS (˜1.5×10^4 cells) was then added to each well containing 50 μL of diluted compound. The plates were then incubated at 37° C. for 5 days. For the antiviral assay utilizing MT-4 cells, 20 μL of 2× test concentration of 5-fold serially diluted compound in culture medium with 10% FBS was added to each well of a 384-well plate (7 concentrations) in triplicate. MT-4 cells were next mixed with HIV-IIIb at an m.o.i. of 0.1 and 20 μL of virus/cell mixture (˜2000 cells) was immediately added to each well containing 20 μL of diluted compound. The plates were then incubated at 37° C. for 5 days. After 5 days of incubation, 100 μL of CellTiter-Glo™ Reagent (catalog #G7571, Promega Biosciences, Inc., Madison, Wis.) was added to each well containing MT-2 cells and 40 μl to each well containing MT-4 cells. Cell lysis was carried out by incubating at room temperature for 10 min and then chemiluminescence was read.

[7] = PO 4 mg/kg suspension, dog plasma, individual dogs, 4 mg/kg
[8] = male, beagle, dog, plasma, po, 4 mg/kg, PO 4 mg/kg suspension, dog plasma, individual dogs
[9] = PO 3 mg/kg suspension, dog plasma, individual dogs, 3 mg/kg
[10] = male, beagle, dog, plasma, po, 3 mg/kg, PO 3 mg/kg suspension, dog plasma, individual dogs
[11] = male, beagle, dog, plasma, po, 3 mg/kg, PO 3 mg/kg suspension, dog plasma, mean n = 3

Question: With `CNC(=O)c1c(O)c2ncc(Cc3ccc(F)cc3)c3c2n(c1=O)C[C@H](C(=O)NC)O3` [Comparator Compound, reference compound] as the compound, how does the solubility ([1]; pH 2.2, room temperature) read?
Answer: 1 µg/mL (≈ 2.35 µM)

Question: And the solubility ([1]; pH 7.3, room temperature)?
Answer: 1 µg/mL (≈ 2.35 µM)

Question: And the EC50 (HIV-IIIb [2])?
Answer: 6.8 nM

Question: And the AUClast [3, 7]?
Answer: 385 nM·h and 89.8 nM·h and 55.2 nM·h

Question: And the Cmax [3, 7]?
Answer: 58.5 nM and 16.3 nM and 11.3 nM

Question: And the Tmax [3, 7]?
Answer: 2.00 h

Question: And the “F (oral bioavailability)” value ([3]; PO 4 mg/kg suspension, dog, individual dogs, 4 mg/kg)?
Answer: 0.5% and 0.1% (2×)

Question: And the CL ([3]; listed in table of PO 4 mg/kg suspension, dog plasma, individual dogs, 4 mg/kg)?
Answer: 0.13 L/h/kg and 0.14 L/h/kg and 0.19 L/h/kg

Question: What about the CL ([3]; listed in table of PO 4 mg/kg suspension, dog plasma, mean n = 3) of the same compound?
Answer: 0.15 L/h/kg

Question: And the AUC(0-inf) ([3]; male, beagle, dog, plasma, po, 4 mg/kg, PO 4 mg/kg suspension, dog plasma, Mean column (only one dog calculable))?
Answer: 0.427 µM·h

Question: What about the AUC(0-inf) [3, 8] of the same compound?
Answer: 0.427 µM·h

Question: What about the half-life [3, 8] of the same compound?
Answer: 178 min

Question: What about the Tmax ([3]; male, beagle, dog, plasma, po, 4 mg/kg, PO 4 mg/kg suspension, dog plasma, individual dogs, read-out: Tmax) of the same compound?
Answer: 4 h

Question: And the Cmax ([3]; male, beagle, dog, plasma, po, 4 mg/kg, PO 4 mg/kg suspension, dog plasma, mean n = 3)?
Answer: 28.7 ± 25.9 nM

Question: And the AUC(0-t) ([3]; male, beagle, dog, plasma, po, 4 mg/kg, PO 4 mg/kg suspension, dog plasma, mean n = 3, read-out: AUClast (AUC0-t))?
Answer: 0.177 ± 0.181 µM·h

Question: What about the Tmax ([3]; male, beagle, dog, plasma, po, 4 mg/kg, PO 4 mg/kg suspension, dog plasma, mean n = 3, read-out: Tmax) of the same compound?
Answer: 2.67 h

Question: And the bioavailability ([3]; male, beagle, dog, plasma, po, 4 mg/kg, PO 4 mg/kg suspension, pentagastrin pretreated dogs, mean n = 3)?
Answer: 0.2%

Question: With `CNC(=O)c1c(O)c2ncc(Cc3ccc(F)cc3)c3c2n(c1=O)C[C@](C)(c1nnc(C)o1)O3` [Compound (Ia)] as the compound, how does the CC50 at 5 days [4] read?
Answer: 42 µM

Question: And the CC50 at 5 days [5]?
Answer: 5.3 µM

Question: And the EC50 (HIV-IIIb [6])?
Answer: 3.4 nM

Question: What about the solubility ([1]; pH 2.2, room temperature) of the same compound?
Answer: 29.4 µg/mL (≈ 63.2 µM)

Question: What about the solubility ([1]; pH 7.3, room temperature) of the same compound?
Answer: 31.6 µg/mL (≈ 67.9 µM)

Question: What about the AUCinf [3, 9] of the same compound?
Answer: 14.413 µM·h and 21.913 µM·h

Question: What about the AUClast [3, 9] of the same compound?
Answer: 14199 nM·h and 21762 nM·h

Question: And the Cmax [3, 9]?
Answer: 2500 nM and 4240 nM

Question: What about the Tmax [3, 9] of the same compound?
Answer: 2.00 h

Question: And the t1/2 [3, 9]?
Answer: 4.88 h and 3.64 h

Question: What about the “F (oral bioavailability)” value ([3]; PO 3 mg/kg suspension, dog, individual dogs, 3 mg/kg) of the same compound?
Answer: 35.0% and 53.6%

Question: What about the “F (oral bioavailability)” value ([3]; PO 3 mg/kg suspension, pentagastrin pretreated dogs, mean n = 3) of the same compound?
Answer: 45.2%

Question: And the CL ([3]; listed in table of PO 3 mg/kg suspension, dog plasma, individual dogs, 3 mg/kg)?
Answer: 0.17 L/hr/kg (2×) and 0.15 L/hr/kg

Question: And the CL ([3]; listed in table of PO 3 mg/kg suspension, dog plasma, mean n = 3)?
Answer: 0.16 L/h/kg

Question: What about the AUC(0-inf) [3, 10] of the same compound?
Answer: 19.3 µM·h

Question: And the Cmax [3, 10]?
Answer: 3160 nM

Question: And the half-life [3, 10]?
Answer: 250 min

Question: What about the AUC(0-t) ([3]; male, beagle, dog, plasma, po, 3 mg/kg, PO 3 mg/kg suspension, dog plasma, individual dogs, read-out: AUClast) of the same compound?
Answer: 19.1 µM·h

Question: What about the Tmax ([3]; male, beagle, dog, plasma, po, 3 mg/kg, PO 3 mg/kg suspension, dog plasma, individual dogs, read-out: Tmax) of the same compound?
Answer: 1 h

Question: And the AUC(0-inf) [3, 11]?
Answer: 18.6 µM·h

Question: And the Cmax [3, 11]?
Answer: 3300 ± 878 nM

Question: And the half-life [3, 11]?
Answer: 253 min

Question: What about the AUC(0-t) ([3]; male, beagle, dog, plasma, po, 3 mg/kg, PO 3 mg/kg suspension, dog plasma, mean n = 3, read-out: AUClast) of the same compound?
Answer: 18.3 µM·h

Question: What about the Tmax ([3]; male, beagle, dog, plasma, po, 3 mg/kg, PO 3 mg/kg suspension, dog plasma, mean n = 3, read-out: Tmax) of the same compound?
Answer: ~1.33 h

Question: And the bioavailability ([3]; male, beagle, dog, plasma, po, 3 mg/kg, PO 3 mg/kg suspension, dog, individual dogs)?
Answer: 47%

Question: What about the bioavailability ([3]; male, beagle, dog, plasma, po, 3 mg/kg, PO 3 mg/kg suspension, pentagastrin pretreated dogs, mean n = 3) of the same compound?
Answer: 45%
